The text below walks through data of patent publication US7291641B2, “Derivatives of heterocycles with 5 members, their preparation and their use as medicaments” (Societe de Conseils de Recherches et d'Applications …, priority 1999, dated 2007).

Broadly, the melting point is the temperature, or range, at which the solid turns liquid.

Each structure is given as a SMILES string. Structures can show the parent of a compound that is named as a salt.

In turn, `CCCCCCC(NCCC)c1nc(-c2ccccc2)c[nH]1` (racemic) [Example 224, (R,S)-N-[1-(4-phenyl-1H-imidazol-2-yl)heptyl]-N-propylamine] yielded a melting point of 94 to 98 °C. The value for `CC(C)(C)OC(=O)N[C@H](CCc1ccccc1)c1nc(-c2ccc(-c3ccccc3)cc2)c[nH]1` [Example 167, 4-(2-{(1R)-1-[(tert-butoxycarbonyl)amino]-3-phenylpropyl}-1H-imidazol-4-yl)-1,1′-biphenyl] was 154 to 156 °C. As for `CC(C)(C)OC(=O)NCc1nc(-c2ccc(-c3ccccc3)cc2)c[nH]1` [Example 137, 4-(2-{[(tert-butoxycarbonyl)amino]methyl}-1H-imidazol-4-yl)-1,1′-biphenyl], the figure is 100 to 102 °C; as for `CCCCC(=O)NCCc1nc(-c2ccc(-c3ccccc3)cc2)c[nH]1` [Example 32, N-[2-(4-[1,1′-biphenyl]-4-yl-1H-imidazol-2-yl)ethyl]pentanamide], 166 to 167 °C.

Take `CC(C)(C)c1ccc(-c2c[nH]c(CCNC(=O)OCC3CCC3)n2)cc1` [Example 340, cyclobutylmethyl 2-[4-(4-tert-butylphenyl)-1H-imidazol-2-yl]ethylcarbamate]: the melting point was 103 °C. The value for `CCCCOC(=O)NCCc1nc(-c2ccc(-c3ccccc3)cc2)c(C)[nH]1` [Example 393, butyl 2-[4-(1,1′-biphenyl-4-yl)-5-methyl-1H-imidazol-2-yl]ethylcarbamate] was 143 to 144 °C; that for `Cn1cc(CC(N)c2nc(-c3ccccc3)c[nH]2)c2ccccc21` (racemic) (as salt: hydrochloride) [Example 92, (R,S)-2-(1-methyl-1H-indol-3-yl)-1-(4-phenyl-1H-imidazol-2-yl)ethylamine] was 110 to 114 °C; that for `CCC[C@@H](NCc1ccccc1)c1nc(-c2ccccc2)c[nH]1` [Example 214, (1R)-N-benzyl-1-(4-phenyl-1H-imidazol-2-yl)-1-butanamine] was 218 to 220 °C. Compound `NCc1nc(-c2ccc(-c3ccccc3)cc2)c[nH]1` (as salt: hydrochloride) [Example 141, (4-[1,1′-biphenyl]4-yl-1H-imidazol-2-yl)methanamine] displayed a melting point of 240 to 242 °C. In the case of `O=C(N[C@H](Cc1c[nH]c2ccccc12)c1nc(-c2ccccc2)c[nH]1)OCc1ccccc1` [Example 99, benzyl (1R)-2-(1H-indol-3-yl)-1-(4-phenyl-1H-imidazol-2-yl)ethylcarbamate], the melting point lay in the range of 105 to 108 °C. `O=C(NCCc1nc(-c2ccc(-c3ccc(Br)cc3)cc2)c[nH]1)OCCCC(F)(F)F` [Example 344, 4,4,4-trifluorobutyl 2-[4-(4′-bromo-1,1′-biphenyl-4-yl)-1H-imidazol-2-yl]ethylcarbamate] showed a melting point of 176.5 °C.

`CC[C@H](NCc1ccccc1)c1nc(-c2ccccc2)c(-c2ccccc2)[nH]1` [Example 204, (1S)-N-benzyl-1-(4,5-diphenyl-1H-imidazol-2-yl)-1-propanamine] showed a melting point of 182 to 184 °C.

`O=C(NCCc1nc(-c2ccc(-c3ccccc3)cc2)c[nH]1)OC1CCCCC1` [Example 269, 4-[2-(2-{[(cyclohexyloxy)carbonyl]amino}ethyl)-1H-imidazol-4-yl]-1,1′-biphenyl] returned a melting point of 150 °C. Consider `CCCCOC(=O)NCCc1nc(-c2ccc(-c3cccc(F)c3)cc2)c[nH]1` [Example 444, butyl 2-[4-(3′-fluoro-1,1′-biphenyl-4-yl)-1H-imidazol-2-yl]ethylcarbamate], for which the melting point was 141.5 °C. As for `CN(Cc1nc(-c2ccc(-c3ccccc3)cc2)c[nH]1)C(=O)OC(C)(C)C` [Example 149, 4-(2-{[(tert-butoxycarbonyl)(methyl)amino]methyl}-1H-imidazol-4-yl)-1,1′-biphenyl], the melting point lay within 72 to 74 °C. `CC(C)C[C@H](N)c1nc(-c2ccccc2)c[nH]1` (as salt: hydrochloride) [Example 56, (1S)-3-methyl-1-(4-phenyl-1H-imidazol-2-yl)-1-butanamine] came in with a melting point of 150 to 152 °C. In turn, `c1ccc(-c2c[nH]c([C@@H](NC3CCCCC3)C3CCCCC3)n2)cc1` [Example 243, N-[(S)-cyclohexyl(4-phenyl-1H-imidazol-2-yl)methyl]-cyclohexanamine] returned a melting point of 240 to 242 °C. In turn, `N[C@H](CC1CCCCC1)c1nc(-c2ccc(-c3ccccc3)cc2)c[nH]1` (as salt: hydrochloride) [Example 154] registered a melting point of 178 to 180 °C. Compound `CCOC(=O)NCCc1nc(-c2ccc(-c3ccccc3)cc2)c[nH]1` [Example 246, 4-(2-{2-[(ethoxycarbonyl)amino]ethyl}-1H-imidazol-4-yl)-1,1′-biphenyl] had a melting point of 132.5 °C. `CC(C)(C)OC(=O)N[C@H](CC1CCCCC1)c1nc(-c2ccc(-c3ccccc3)cc2)c[nH]1` [Example 150, 4-(2-{(1R)-1-[(tert-butoxycarbonyl)amino]-2-cyclohexylethyl}-1H-imidazol-4-yl)-1,1′-biphenyl]: the melting point lay within 112 to 114 °C. In turn, `CCCCOC(=O)NCc1nc(-c2ccc(-c3ccccc3)cc2)c[nH]1` [Example 78, butyl (4-[1,1′-biphenyl]-4-yl-1H-imidazol-2-yl)methylcarbamate] registered a melting point of 130 to 132 °C. On to `CC(C)CCCOC(=O)NCCc1nc(-c2ccc(-c3ccccc3)cc2)c[nH]1` [Example 378, 4-methylpentyl 2-[4-(1,1′-biphenyl-4-yl)-1H-imidazol-2-yl]ethylcarbamate], for which the melting point came to 128.3 °C. As for `CC(C)(C)c1cc(-c2c[nH]c([C@@H](N)C3CCCCC3)n2)cc(C(C)(C)C)c1O` (as salt: hydrochloride) [Example 316, 4-{2-[(S)-amino(cyclohexyl)methyl]-1H-imidazol-4-yl}-2,6-ditert-butylphenol], the figure is 222 to 228 °C. The compound `Cn1cc(-c2ccccc2)nc1[C@@H](Cc1c[nH]c2ccccc12)NC(=O)OC(C)(C)C` [Example 148, tert-butyl (1R)-2-(1H-indol-3-yl)-1-(1-methyl-4-phenyl-1H-imidazol-2-yl)ethylcarbamate] had a melting point of 96 to 100 °C.

In turn, `Fc1ccc(-c2c[nH]c([C@@H](NC3CCCCCC3)C3CCCCC3)n2)cc1` [Example 301, N-{(S)-cyclohexyl[4-(4-fluorophenyl)-1H-imidazol-2-yl]methyl}cycloheptanamine] gave a melting point of 140 to 142 °C. The value for `CCCCCCC(NCc1ccccc1)c1nc(-c2cccc(Br)c2)c[nH]1` (racemic) (as salt: acetate) [Example 193, (R,S)-N-benzyl-1-[4-(3-bromophenyl)-1H-imidazol-2-yl]-1-heptanamine] was 115 to 116 °C; that for `N[C@H](CCc1ccccc1)c1nc(-c2ccc(-c3ccccc3)cc2)c[nH]1` (as salt: hydrochloride) [Example 166, (1R)-1-(4-[1,1′-biphenyl]-4-yl-1H-imidazol-2-yl)-3-phenyl-1-propanamine] was 215 to 218 °C; that for `c1ccc(-c2c[nH]c([C@@H](NC3CCC3)C3CCCCC3)n2)cc1` (as salt: hydrochloride) [Example 83, N-[(S)-cyclohexyl(4-phenyl-1H-imidazol-2-yl)methyl]-cyclobutanamine] was 210 to 212 °C. As for `CCCCOC(=O)NCCc1nc(-c2ccc(-c3cccc(F)c3F)cc2)c[nH]1` [Example 455, butyl 2-[4-(2′,3′-difluoro-1,1′-biphenyl-4-yl)-1H-imidazol-2-yl]ethylcarbamate], the figure is 90 °C; as for `CCCCC(N)c1nc(-c2ccccc2)c[nH]1` (racemic) (as salt: hydrochloride) [Example 181, (R,S)-1-(4-phenyl-1H-imidazol-2-yl)pentylamine], 178 to 180 °C; as for `Fc1ccc(-c2c[nH]c(C(NC3CCC3)C3CCCC3)n2)cc1` (racemic) [Example 274, (R,S)-N-{cyclopentyl[4-(4-fluorophenyl)-1H-imidazol-2-yl]methyl}cyclobutanamine], 146 to 148 °C. As for `CC(C)CCCC(NCc1ccccc1)c1nc(-c2cccc(Br)c2)c[nH]1` (racemic) [Example 235, (R,S)-N-benzyl-1-[4-(3-bromophenyl)-1H-imidazol-2-yl]-5-methyl-1-hexanamine], the figure is 92 to 94 °C; as for `COC(=O)NCCc1nc(-c2ccc(-c3ccccc3)cc2)c[nH]1` [Example 244, 4-(2-{2-[(methoxycarbonyl)amino]ethyl}-1H-imidazol-4-yl)-1,1′-biphenyl], 177.2 °C. With `O=C(N[C@H](Cc1c[nH]c2ccccc12)c1nc(-c2ccccc2)cs1)c1ccccc1` [Example 101, N-[(1R)-2-(1H-indol-3-yl)-1-(4-phenyl-1,3-thiazol-2-yl)-ethyl]benzamide], the melting point was 108 to 110 °C. As to `CCCCOC(=O)NC(C)(C)c1nc(-c2ccc(-c3ccccc3)cc2)c[nH]1` [Example 238, 4-(2-{1-[(butoxycarbonyl)amino]-1-methylethyl}-1H-imidazol-4-yl)-1,1′-biphenyl], the melting point lay within 170 to 172 °C. `CC(C)(C)OC(=O)N(Cc1ccccc1)Cc1nc(-c2ccc(-c3ccccc3)cc2)c[nH]1` [Example 165, 4-(2-{[benzyl(tert-butoxycarbonyl)amino]methyl}-1H-imidazol-4-yl)-1,1′-biphenyl] came in with a melting point of 130 to 132 °C.

The compound `CC(C)(N)c1nc(-c2ccccc2)c[nH]1` (as salt: hydrochloride) showed a melting point of 200 to 204 °C. With `CCCCOC(=O)NCCc1nc(-c2ccc(-c3ccc(C#N)cc3)cc2)c[nH]1` [Example 451, butyl 2-[4-(4′-cyano-1,1′-biphenyl-4-yl)-1H-imidazol-2-yl]ethylcarbamate], the melting point was determined as 147 °C.

Take `COCCOC(=O)NCCc1nc(-c2ccc(-c3ccccc3)cc2)c[nH]1` [Example 288, 4-[2-(2-{[(2-methoxyethoxy)carbonyl]amino}ethyl)-1H-imidazol-4-yl]-1,1′-biphenyl]: the melting point was 123.3 °C.
